# Reference: patent US20240190860A1, “8-CYCLO-SUBSTITUTED QUINAZOLINE DERIVATIVES AS LPA RECEPTOR 2 INHIBITORS” (CHIESI FARMACEUTICI S.p.A., priority 2021, published 2024)
# Target: T1, human recombinant LPA2 expressed in CHO cells (Homo sapiens, UniProt Q9HBW0)
# T1 construct: expressed in transfected cells; host or cells: CHO cells (CHO-hLPA2 cell line)
# Experiment: FLIPR calcium mobilization assay, LPA2 antagonism in CHO-hLPA2 cells
# Assay type: cell-based
# Details: CHO-hLPA2 cells, inhibition of LPA EC80 Ca2+ response, 30 min pre-incubation; read-out: LPA2 IC50
# Outline: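 CHO cells stably expressing human LPA2, loaded 30 min at 37° C with 5 μM Cal-520 AM plus 2.5 mM probenecid in HEPES buffer pH 7.4, then preincubated 30 min with antagonist (11-point series, 0.5% DMSO final). Challenged with LPA at EC80; baseline-subtracted peak FLIPR fluorescence converted to % inhibition and pIC50 by four-parameter logistic fit.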
# T1 sequence (Q9HBW0 whole entry): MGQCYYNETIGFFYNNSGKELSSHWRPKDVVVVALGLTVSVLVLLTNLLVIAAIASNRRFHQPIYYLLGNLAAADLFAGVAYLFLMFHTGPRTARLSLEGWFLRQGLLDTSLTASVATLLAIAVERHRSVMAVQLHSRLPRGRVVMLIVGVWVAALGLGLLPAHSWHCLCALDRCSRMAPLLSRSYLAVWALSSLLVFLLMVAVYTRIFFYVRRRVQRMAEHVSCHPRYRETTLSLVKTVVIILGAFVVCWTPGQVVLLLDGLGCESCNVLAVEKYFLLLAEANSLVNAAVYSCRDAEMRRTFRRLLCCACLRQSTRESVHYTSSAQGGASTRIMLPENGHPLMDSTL
row,IC50 [nM],SMILES
1,< 10,"Cc1noc(-c2ccc(S(=O)(=O)N3CCN(C[C@H](C)Nc4ncnc5c(-c6c(C)noc6C)cccc45)CC3)s2)c1C [Example 9, 8-(3,5-dimethyl-1,2-oxazol-4-yl)-N-[(2S)-1-(4-{[5-(3,4-dimethyl-1,2-oxazol-5-yl)thiophen-2-yl]sulfonyl}piperazin-1-yl)propan-2-yl]quinazolin-4-amine]"
2,10 to 100,"Cc1ccc(-c2cccc3c(N[C@@H](C)CN4CCN(S(=O)(=O)c5ccc6nc(C)sc6c5)CC4)ncnc23)cn1 [Example 99, N-[(2S)-1-{4-[(2-methyl-1,3-benzothiazol-6-yl)sulfonyl]piperazin-1-yl}propan-2-yl]-8-(6-methylpyridin-3-yl)quinazolin-4-amine]"
3,< 10,"COC(=O)Nc1nc(C)c(S(=O)(=O)N2CCN(C[C@H](C)Nc3ncnc4c(-c5ccc(C)c(CN(C)C)c5)cccc34)CC2)s1 [Example 91, methyl N-[5-({4-[(2S)-2-[(8-{3-[(dimethylamino)methyl]-4-methylphenyl}quinazolin-4-yl)amino]propyl]piperazin-1-yl}sulfonyl)-4-methyl-1,3-thiazol-2-yl]carbamate]"
4,< 10,"COC(=O)Nc1nc(C)c(S(=O)(=O)N2CCN(C[C@H](C)Nc3ncnc4c(-c5c(C)noc5C)cccc34)CC2)s1 [Example 10, methyl N-[5-({4-[(2S)-2-{[8-(3,5-dimethyl-1,2-oxazol-4-yl)quinazolin-4-yl]amino}propyl]piperazin-1-yl}sulfonyl)-4-methyl-1,3-thiazol-2-yl]carbamate]"
5,< 1000,"Cc1cc(-c2ccc(S(=O)(=O)N3CCN(C[C@H](C)Nc4ncnc5c(-c6cnc(C(F)(F)F)s6)cccc45)CC3)s2)on1 [Example 15, N-[(2S)-1-(4-{[5-(3-methyl-1,2-oxazol-5-yl)thiophen-2-yl]sulfonyl}piperazin-1-yl)propan-2-yl]-8-[2-(trifluoromethyl)-1,3-thiazol-5-yl]quinazolin-4-amine]"
6,< 10,"Cc1ccc(-c2cccc3c(N[C@@H](C)CN4CCN(S(=O)(=O)c5ccc(-c6cc(C)no6)s5)CC4)ncnc23)cn1 [Example 85, N-[(2S)-1-(4-{[5-(3-methyl-1,2-oxazol-5-yl)thiophen-2-yl]sulfonyl}piperazin-1-yl)propan-2-yl]-8-(6-methylpyridin-3-yl)quinazolin-4-amine]"
7,< 10,"CC(=O)Nc1nc(C)c(S(=O)(=O)N2CCN(C[C@H](C)Nc3ncnc4c(-c5cccnc5)cccc34)CC2)s1 [Example 32, N-[4-methyl-5-({4-[(2S)-2-{[8-(pyridin-3-yl)quinazolin-4-yl]amino}propyl]piperazin-1-yl}sulfonyl)-1,3-thiazol-2-yl]acetamide]"
8,< 10,"COC(=O)Nc1nc(C)c(S(=O)(=O)N2CCN(C[C@H](C)Nc3ncnc4c(-c5ccc(N(C)C)nc5)cccc34)CC2)s1 [Example 26, methyl N-[5-({4-[(2S)-2-({8-[6-(dimethylamino)pyridin-3-yl]quinazolin-4-yl}amino)propyl]piperazin-1-yl}sulfonyl)-4-methyl-1,3-thiazol-2-yl]carbamate]"
9,< 10,"Cc1cc(C(=O)Nc2nc(C)c(S(=O)(=O)N3CCN(C[C@H](C)Nc4ncnc5c(-c6cccnc6)cccc45)CC3)s2)no1 [Example 33, 5-methyl-N-[4-methyl-5-({4-[(2S)-2-{[8-(pyridin-3-yl)quinazolin-4-yl]amino}propyl]piperazin-1-yl}sulfonyl)-1,3-thiazol-2-yl]-1,2-oxazole-3-carboxamide]"
10,10 to 100,"COC(=O)Nc1nc(C)c(S(=O)(=O)N2CCN(C[C@H](C)Nc3ncnc4c(-c5cc(C)ncn5)cccc34)CC2)s1 [Example 95, methyl N-[4-methyl-5-({4-[(2S)-2-{[8-(6-methylpyrimidin-4-yl)quinazolin-4-yl]amino}propyl]piperazin-1-yl}sulfonyl)-1,3-thiazol-2-yl]carbamate]"
11,< 10,"Cc1cc(-c2ccc(S(=O)(=O)N3CCN(C[C@H](C)Nc4ncnc5c(-c6c(C)nn(C)c6C)cccc45)CC3)s2)on1 [Example 5, N-[(2S)-1-(4-{[5-(3-methyl-1,2-oxazol-5-yl)thiophen-2-yl]sulfonyl}piperazin-1-yl)propan-2-yl]-8-(1,3,5-trimethyl-1H-pyrazol-4-yl)quinazolin-4-amine]"
12,< 10,"Cc1cc(-c2ccc(S(=O)(=O)N3CCN(C[C@H](C)Nc4ncnc5c(-c6cn(C)nc6C(F)(F)F)cccc45)CC3)s2)on1 [Example 14, N-[(2S)-1-(4-{[5-(3-methyl-1,2-oxazol-5-yl)thiophen-2-yl]sulfonyl}piperazin-1-yl)propan-2-yl]-8-[1-methyl-3-(trifluoromethyl)-1H-pyrazol-4-yl]quinazolin-4-amine]"

# Second part, the compound before the results:
row,SMILES,IC50 [nM]
1,"COC(=O)Nc1nc(C)c(S(=O)(=O)N2CCN(C[C@H](C)Nc3ncnc4c(-c5cncc(CN(C)C)c5)cccc34)CC2)s1 [Example 55, methyl N-[5-({4-[(2S)-2-[(8-{5-[(dimethylamino)methyl]pyridin-3-yl}quinazolin-4-yl)amino]propyl]piperazin-1-yl}sulfonyl)-4-methyl-1,3-thiazol-2-yl]carbamate]",< 10
2,"CC(=O)Nc1cc(F)c(S(=O)(=O)N2CCN(C[C@H](C)Nc3ncnc4c(-c5cccnc5)cccc34)CC2)cc1C [Example 42, N-[5-fluoro-2-methyl-4-({4-[(2S)-2-{[8-(pyridin-3-yl)quinazolin-4-yl]amino}propyl]piperazin-1-yl}sulfonyl)phenyl]acetamide]",10 to 100
3,"COC(=O)Nc1nc(C)c(S(=O)(=O)N2CCN(C[C@H](C)Nc3ncnc4c(-c5ccccn5)cccc34)CC2)s1 [Example 29, methyl N-[4-methyl-5-({4-[(2S)-2-{[8-(pyridin-2-yl)quinazolin-4-yl]amino}propyl]piperazin-1-yl}sulfonyl)-1,3-thiazol-2-yl]carbamate]",< 10
4,"CC(=O)N1CCc2cc(S(=O)(=O)N3CCN(C[C@H](C)Nc4ncnc5c(-c6cccc(CN(C)C)c6)cccc45)CC3)ccc21 [Example 54, 1-[5-({4-[(2S)-2-[(8-{3-[(dimethylamino)methyl]phenyl}quinazolin-4-yl)amino]propyl]piperazin-1-yl}sulfonyl)-2,3-dihydro-1H-indol-1-yl]ethan-1-one]",< 10
5,"C[C@@H](CN1CCN(S(=O)(=O)c2cccnc2)CC1)Nc1ncnc2c(-c3cn(C)nc3C(F)(F)F)cccc12 [Example 104, 8-[1-methyl-3-(trifluoromethyl)-1H-pyrazol-4-yl]-N-[(2S)-1-[4-(pyridine-3-sulfonyl)piperazin-1-yl]propan-2-yl]quinazolin-4-amine]",10 to 100
6,"Cc1ccc(-c2cccc3c(N[C@@H](C)CN4CCN(S(=O)(=O)c5ccc6[nH]c(=O)sc6c5)CC4)ncnc23)cn1 [Example 78, 6-({4-[(2S)-2-{[8-(6-methylpyridin-3-yl)quinazolin-4-yl]amino}propyl]piperazin-1-yl}sulfonyl)-2,3-dihydro-1,3-benzothiazol-2-one]",10 to 100
7,"COC(=O)Nc1nc(C)c(S(=O)(=O)N2CCN(C[C@H](C)Nc3ncnc4c(-c5ccc(N6CCN(C)CC6)cc5)cccc34)CC2)s1 [Example 36, methyl N-[4-methyl-5-({4-[(2S)-2-({8-[4-(4-methylpiperazin-1-yl)phenyl]quinazolin-4-yl}amino)propyl]piperazin-1-yl}sulfonyl)-1,3-thiazol-2-yl]carbamate]",< 10
8,"COC(=O)Nc1nc(C)c(S(=O)(=O)N2CCN(C[C@H](C)Nc3ncnc4c(-c5ccnc(N6CCN(C)CC6)c5)cccc34)CC2)s1 [Example 44, methyl N-[4-methyl-5-({4-[(2S)-2-({8-[2-(4-methylpiperazin-1-yl)pyridin-4-yl]quinazolin-4-yl}amino)propyl]piperazin-1-yl}sulfonyl)-1,3-thiazol-2-yl]carbamate]",< 10
9,"C[C@@H](CN1CCN(S(=O)(=O)c2ccc3c(c2)CC(=O)N3)CC1)Nc1ncnc2c(-c3cccnc3)cccc12 [Example 66, 5-({4-[(2S)-2-{[8-(pyridin-3-yl)quinazolin-4-yl]amino}propyl]piperazin-1-yl}sulfonyl)-2,3-dihydro-1H-indol-2-one]",10 to 100
10,"Cc1nc2ccc(S(=O)(=O)N3CCN(C[C@H](C)Nc4ncnc5c(-c6cccc(CN(C)C)c6)cccc45)CC3)cc2s1 [Example 84, 8-{3-[(dimethylamino)methyl]phenyl}-N-[(2S)-1-{4-[(2-methyl-1,3-benzothiazol-6-yl)sulfonyl]piperazin-1-yl}propan-2-yl]quinazolin-4-amine]",< 10
11,"COC(=O)Nc1nc(C)c(S(=O)(=O)N2CCN(C[C@H](C)Nc3ncnc4c(-c5c[nH]nc5C(F)(F)F)cccc34)CC2)s1 [Example 82, methyl N-[4-methyl-5-({4-[(2S)-2-({8-[3-(trifluoromethyl)-1H-pyrazol-4-yl]quinazolin-4-yl}amino)propyl]piperazin-1-yl}sulfonyl)-1,3-thiazol-2-yl]carbamate]",< 10
12,"COC(=O)Nc1nc(C)c(S(=O)(=O)N2CCN(C[C@H](C)Nc3ncnc4c(-c5cncc(N6CCN(C)CC6)c5)cccc34)CC2)s1 [Example 67, methyl N-[4-methyl-5-({4-[(2S)-2-({8-[5-(4-methylpiperazin-1-yl)pyridin-3-yl]quinazolin-4-yl}amino)propyl]piperazin-1-yl}sulfonyl)-1,3-thiazol-2-yl]carbamate]",< 10
13,"COC(=O)Nc1nc(C)c(S(=O)(=O)N2CCN(C[C@H](C)Nc3ncnc4c(-c5cn(C)nc5C(F)(F)F)cccc34)CC2)s1 [Example 30, methyl N-[4-methyl-5-({4-[(2S)-2-({8-[1-methyl-3-(trifluoromethyl)-1H-pyrazol-4-yl]quinazolin-4-yl}amino)propyl]piperazin-1-yl}sulfonyl)-1,3-thiazol-2-yl]carbamate]",< 10
